Assay results published in ChEMBL document CHEMBL1909046, “DrugMatrix in vitro pharmacology data”.

Assays:
[1] = molecular target: T1, Neuropeptide Y receptor type 1 (Homo sapiens, UniProt P25929); type: cell membranes, Membrane; conditions: sk-n-mc; note: in other assays of this panel Not Active means under 50% inhibition at 10 µM
T1 sequence (P25929 whole entry): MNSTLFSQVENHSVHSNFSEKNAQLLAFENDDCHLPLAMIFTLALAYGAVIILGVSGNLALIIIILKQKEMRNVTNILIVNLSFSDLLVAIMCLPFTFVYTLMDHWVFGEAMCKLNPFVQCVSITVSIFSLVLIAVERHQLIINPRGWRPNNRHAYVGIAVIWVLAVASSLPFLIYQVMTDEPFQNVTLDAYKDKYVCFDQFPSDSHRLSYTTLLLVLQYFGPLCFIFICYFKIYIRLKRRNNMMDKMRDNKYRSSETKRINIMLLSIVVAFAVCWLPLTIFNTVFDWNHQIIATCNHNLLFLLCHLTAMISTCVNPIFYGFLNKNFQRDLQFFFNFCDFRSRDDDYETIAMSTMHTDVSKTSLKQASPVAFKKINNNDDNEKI

[2] = molecular target: T2, 5-hydroxytryptamine receptor 1A (Rattus norvegicus, UniProt P19327); type: cell membranes, CHO-K1, Membrane; conditions: for Ki: read-out: Ki; for all read-outs here: in other assays of this panel Not Active means under 50% inhibition at 10 µM
T2 sequence (P19327 whole entry): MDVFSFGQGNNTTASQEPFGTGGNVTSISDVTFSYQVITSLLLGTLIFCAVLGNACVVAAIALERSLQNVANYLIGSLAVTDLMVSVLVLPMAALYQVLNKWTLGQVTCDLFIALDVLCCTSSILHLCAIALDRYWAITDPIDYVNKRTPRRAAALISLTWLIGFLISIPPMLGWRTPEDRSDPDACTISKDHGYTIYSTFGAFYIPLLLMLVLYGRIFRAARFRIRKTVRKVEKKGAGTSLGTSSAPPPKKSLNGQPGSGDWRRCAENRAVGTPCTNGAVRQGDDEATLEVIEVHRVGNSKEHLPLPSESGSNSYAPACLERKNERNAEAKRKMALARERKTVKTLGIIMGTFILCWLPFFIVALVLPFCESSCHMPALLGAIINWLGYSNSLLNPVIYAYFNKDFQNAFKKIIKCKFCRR

[3] = DRUGMATRIX: Calcium Channel Type L, Dihydropyridine radioligand binding (ligand: [3H] Nitrendipine); type: cell membranes, Rattus norvegicus, Wistar, Cerebral cortex, Membrane; conditions: Not Active = under 50% inhibition at 10 µM
Nitric oxide synthase 1 = Nitric oxide synthase 1 (Rattus norvegicus, UniProt P29476); type: tissue-based, Cerebellum; note: in other assays of this panel Not Active means under 50% inhibition at 10 µM
Sequence of Nitric oxide synthase 1 (P29476 whole entry): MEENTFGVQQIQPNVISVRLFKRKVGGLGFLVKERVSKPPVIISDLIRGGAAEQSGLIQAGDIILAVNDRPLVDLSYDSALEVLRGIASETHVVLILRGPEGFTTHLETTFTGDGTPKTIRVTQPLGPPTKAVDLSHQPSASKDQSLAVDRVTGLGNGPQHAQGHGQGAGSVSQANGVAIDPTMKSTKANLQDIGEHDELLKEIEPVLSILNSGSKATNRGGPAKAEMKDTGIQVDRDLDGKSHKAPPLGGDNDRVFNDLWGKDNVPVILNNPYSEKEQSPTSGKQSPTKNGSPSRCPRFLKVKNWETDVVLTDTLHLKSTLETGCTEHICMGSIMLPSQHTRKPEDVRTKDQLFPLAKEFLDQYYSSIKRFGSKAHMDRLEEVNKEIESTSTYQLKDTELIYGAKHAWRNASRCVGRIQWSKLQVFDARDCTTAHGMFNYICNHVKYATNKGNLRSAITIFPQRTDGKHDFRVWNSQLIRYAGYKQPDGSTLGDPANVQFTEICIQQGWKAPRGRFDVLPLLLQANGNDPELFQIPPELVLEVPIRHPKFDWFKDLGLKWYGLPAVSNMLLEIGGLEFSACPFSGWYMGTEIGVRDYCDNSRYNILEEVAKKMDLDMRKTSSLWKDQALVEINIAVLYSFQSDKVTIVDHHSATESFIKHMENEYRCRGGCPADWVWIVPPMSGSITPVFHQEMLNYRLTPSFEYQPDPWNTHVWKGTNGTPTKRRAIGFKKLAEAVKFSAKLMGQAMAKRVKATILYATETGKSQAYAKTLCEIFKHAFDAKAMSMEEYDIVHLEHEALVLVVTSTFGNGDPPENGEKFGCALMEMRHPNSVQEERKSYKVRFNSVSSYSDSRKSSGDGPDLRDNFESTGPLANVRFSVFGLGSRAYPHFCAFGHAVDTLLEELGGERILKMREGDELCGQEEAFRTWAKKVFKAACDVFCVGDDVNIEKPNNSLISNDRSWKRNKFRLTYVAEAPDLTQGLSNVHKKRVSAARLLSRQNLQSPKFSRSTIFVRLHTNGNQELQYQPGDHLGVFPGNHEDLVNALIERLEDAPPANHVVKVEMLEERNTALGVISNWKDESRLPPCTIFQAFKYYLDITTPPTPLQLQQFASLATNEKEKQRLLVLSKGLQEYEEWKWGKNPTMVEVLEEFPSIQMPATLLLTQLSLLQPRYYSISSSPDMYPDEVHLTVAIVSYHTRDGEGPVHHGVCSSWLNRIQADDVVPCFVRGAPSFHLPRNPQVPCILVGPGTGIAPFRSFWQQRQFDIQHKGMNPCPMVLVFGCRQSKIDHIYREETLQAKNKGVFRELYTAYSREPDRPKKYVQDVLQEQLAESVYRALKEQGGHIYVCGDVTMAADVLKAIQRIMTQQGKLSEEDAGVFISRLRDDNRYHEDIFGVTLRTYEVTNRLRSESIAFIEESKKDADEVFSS

Melanocortin receptor 3 = Melanocortin receptor 3 (Homo sapiens, UniProt P41968); type: cell membranes, HEK293, Membrane; note: in other assays of this panel Not Active means under 50% inhibition at 10 µM
Sequence of Melanocortin receptor 3 (P41968 whole entry): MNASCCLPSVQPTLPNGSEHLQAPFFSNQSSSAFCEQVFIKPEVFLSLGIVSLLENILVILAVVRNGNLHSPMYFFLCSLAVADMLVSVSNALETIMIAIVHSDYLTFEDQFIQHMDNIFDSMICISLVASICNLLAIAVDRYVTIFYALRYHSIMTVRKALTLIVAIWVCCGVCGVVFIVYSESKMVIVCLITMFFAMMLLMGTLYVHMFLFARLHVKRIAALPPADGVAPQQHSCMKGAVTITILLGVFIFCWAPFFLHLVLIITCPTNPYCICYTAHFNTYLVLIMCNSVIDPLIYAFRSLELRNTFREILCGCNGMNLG

Cytochrome P450 2C19 = Cytochrome P450 2C19 (Homo sapiens, UniProt P33261); conditions: bti-tn-5b1-4; note: in other assays of this panel Not Active means under 50% inhibition at 10 µM
Sequence of Cytochrome P450 2C19 (P33261 whole entry): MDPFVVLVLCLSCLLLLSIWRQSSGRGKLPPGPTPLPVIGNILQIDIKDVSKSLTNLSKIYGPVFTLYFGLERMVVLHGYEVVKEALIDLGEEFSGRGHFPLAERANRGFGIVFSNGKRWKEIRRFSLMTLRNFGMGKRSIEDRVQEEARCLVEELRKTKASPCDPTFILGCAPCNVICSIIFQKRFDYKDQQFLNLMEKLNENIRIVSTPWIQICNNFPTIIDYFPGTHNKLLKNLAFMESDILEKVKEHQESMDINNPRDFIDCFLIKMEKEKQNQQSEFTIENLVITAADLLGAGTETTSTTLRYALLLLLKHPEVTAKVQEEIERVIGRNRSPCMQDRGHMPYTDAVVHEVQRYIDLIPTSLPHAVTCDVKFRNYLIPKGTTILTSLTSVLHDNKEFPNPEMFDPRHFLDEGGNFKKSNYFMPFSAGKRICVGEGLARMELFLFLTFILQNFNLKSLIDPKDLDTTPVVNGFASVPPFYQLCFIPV

SMILES	IC50 [1]	IC50 ([2]; cho-k1)	IC50 ([3]; read-out: IC50) [nM]	Ki ([3]; read-out: Ki) [nM]	IC50 (Nitric oxide synthase 1)	IC50 (Melanocortin receptor 3; read-out: IC50) [µM]	Ki (Melanocortin receptor 3; read-out: Ki) [µM]	IC50 [2] [µM]	Ki [2] [nM]	IC50 (Cytochrome P450 2C19)	Ki (Cytochrome P450 2C19)	IC50 [3]	Ki [3]	IC50 (Melanocortin receptor 3; hek293)	IC50 ([2]; read-out: IC50) [µM]
Cc1c(C)c2c(c(C)c1O)CCC(C)(CN1CCN(c3cc(N4CCCC4)nc(N4CCCC4)n3)CC1)O2 (stereo not given)	Not Active	Not Active	1660	1070	Not Active	17.3	15.1	–	–	–	–	–	–	–	–
COc1ccc(CCN(C)CCCC(C#N)(c2ccc(OC)c(OC)c2)C(C)C)cc1OC (stereo not given)	Not Active	–	–	–	Not Active	–	–	3.02	1730	Not Active	Not Active	Not Active	Not Active	Not Active	–
CC(C)Cc1ccc([C@@H](C)C(=O)O)cc1 [(R)-IBUPROPHEN]	Not Active	Not Active	–	–	Not Active	–	–	–	–	Not Active	Not Active	Not Active	Not Active	Not Active	–
CN(C)CCOC(c1ccccc1)c1ccccc1 [DIPHENHYDRAMINE]	Not Active	Not Active	–	–	Not Active	–	–	–	–	–	–	–	–	Not Active	–
Clc1ccc(COC(Cn2ccnc2)c2ccc(Cl)cc2Cl)cc1 (stereo not given) [ECONAZOLE]	Not Active	–	–	–	Not Active	–	–	–	9240	–	–	–	–	–	16.2
CCN(CC)CCOc1ccc(/C(=C(/Cl)c2ccccc2)c2ccccc2)cc1 [ENCLOMIPHENE]	Not Active	Not Active	–	–	Not Active	–	–	–	–	Not Active	Not Active	–	–	Not Active	–
Fc1ccc(C(c2ccc(F)cc2)N2CCN(C/C=C/c3ccccc3)CC2)cc1 [FLUNARIZINE]	Not Active	–	–	–	Not Active	–	–	–	2450	Not Active	Not Active	–	–	Not Active	4.28
CNCCC(Oc1ccc(C(F)(F)F)cc1)c1ccccc1 (stereo not given) [FLUOXETINE]	Not Active	Not Active	–	–	Not Active	–	–	–	–	Not Active	Not Active	–	–	Not Active	–
Cc1ccc(NC(=O)c2ccc(CN3CCN(C)CC3)cc2)cc1Nc1nccc(-c2cccnc2)n1 [IMATINIB]	Not Active	Not Active	–	–	Not Active	–	–	–	–	Not Active	Not Active	–	–	Not Active	–
CC(C)Oc1ccc2c(=O)c(-c3ccccc3)coc2c1 [IPRIFLAVONE]	Not Active	Not Active	–	–	Not Active	–	–	–	–	Not Active	Not Active	Not Active	Not Active	Not Active	–
CC(C)NCC(O)c1ccc(O)c(O)c1 (stereo not given) [ISOPROTERENOL]	Not Active	Not Active	–	–	Not Active	–	–	–	–	Not Active	Not Active	Not Active	Not Active	Not Active	–
CNC1(c2ccccc2Cl)CCCCC1=O (stereo not given) [KETAMINE]	Not Active	Not Active	–	–	Not Active	–	–	–	–	Not Active	Not Active	Not Active	Not Active	Not Active	–
N#Cc1ccc(C(c2ccc(C#N)cc2)n2cncn2)cc1 [LETROZOLE]	Not Active	Not Active	–	–	Not Active	–	–	–	–	Not Active	Not Active	Not Active	Not Active	Not Active	–
CCN1CCC[C@H]1CNC(=O)c1cc(S(N)(=O)=O)ccc1OC [LEVOSULPIRIDE]	Not Active	Not Active	–	–	Not Active	–	–	–	–	Not Active	Not Active	Not Active	Not Active	Not Active	–
CCN(CC)CC(=O)Nc1c(C)cccc1C [LIDOCAINE]	Not Active	Not Active	–	–	Not Active	–	–	–	–	–	–	Not Active	Not Active	Not Active	–
O=C1Nc2ccc(Cl)cc2C(c2ccccc2Cl)=NC1O (stereo not given) [LORAZEPAM]	Not Active	Not Active	–	–	Not Active	–	–	–	–	Not Active	Not Active	Not Active	Not Active	Not Active	–
CO[C@@H]1[C@@H](OC)[C@H](C)[C@@](O)(CC(=O)O)O[C@H]1[C@H](C)[C@H]1O[C@@]2(CC[C@@](C)([C@H]3CC[C@@](C)([C@@H]4O[C@@H]([C@H]5O[C@](C)(O)[C@H](C)C[C@@H]5C)C[C@@H]4O[C@@H]4C[C@H](OC)[C@@H](OC)[C@H](C)O4)O3)O2)C[C@H](O)[C@H]1C [MADURAMICIN ACID]	Not Active	–	–	–	Not Active	–	–	–	4.47	Not Active	Not Active	Not Active	Not Active	Not Active	0.00783
COc1c2occc2cc2ccc(=O)oc12 [METHOXSALEN]	Not Active	Not Active	–	–	Not Active	–	–	–	–	Not Active	Not Active	Not Active	Not Active	Not Active	–
C[C@H]1C[C@@H]2[C@H]([C@@H](O)C[C@@]3(C)[C@H]2CC[C@]3(O)C(=O)CO)[C@@]2(C)C=CC(=O)C=C12 [METHYLPREDNISOLONE]	Not Active	Not Active	–	–	Not Active	–	–	–	–	–	–	Not Active	Not Active	Not Active	–
Cc1cccc(C)c1OCC(C)N (stereo not given) [MEXILETINE]	Not Active	Not Active	–	–	Not Active	–	–	–	–	Not Active	Not Active	Not Active	Not Active	Not Active	–
Nc1cc(N2CCCCC2)nc(N)[n+]1[O-] [MINOXIDIL]	Not Active	Not Active	–	–	Not Active	–	–	–	–	Not Active	Not Active	Not Active	Not Active	Not Active	–
CO[C@H]1/C=C/O[C@@]2(C)Oc3c(C)c(O)c4c(O)c(c(/C=N/N5CCN(C6CCCC6)CC5)c(O)c4c3C2=O)NC(=O)/C(C)=C\C=C\[C@H](C)[C@H](O)[C@@H](C)[C@@H](O)[C@@H](C)[C@H](OC(C)=O)[C@@H]1C [RIFAPENTINE]	Not Active	Not Active	–	–	Not Active	–	–	–	–	Not Active	Not Active	Not Active	Not Active	Not Active	–
CCCCOc1cc(CC2CNC(=O)N2)ccc1OC (stereo not given) [RO-201724]	Not Active	Not Active	–	–	Not Active	–	–	–	–	Not Active	Not Active	Not Active	Not Active	Not Active	–
CC[C@@H](C(=O)[C@@H](C)[C@@H](O)[C@H](C)[C@@H]1O[C@@H]([C@@H](CC)C(=O)O)CC[C@@H]1C)[C@H]1O[C@]2(C=C[C@@H](O)[C@]3(CC[C@@](C)([C@H]4CC[C@](O)(CC)[C@H](C)O4)O3)O2)[C@H](C)C[C@@H]1C [SALINOMYCIN]	Not Active	Not Active	–	–	Not Active	–	–	–	–	Not Active	Not Active	Not Active	Not Active	Not Active	–
CN[C@H]1CC[C@@H](c2ccc(Cl)c(Cl)c2)c2ccccc21 [SERTRALINE]	Not Active	Not Active	–	–	Not Active	–	–	–	–	–	–	–	–	Not Active	–
CCCCNc1ccc(C(=O)OCCN(C)C)cc1 [TETRACAINE]	Not Active	Not Active	–	–	Not Active	–	–	–	–	–	–	Not Active	Not Active	Not Active	–
Clc1ccccc1CN1CCc2sccc2C1 [TICLOPIDINE]	Not Active	Not Active	–	–	Not Active	–	–	–	–	–	–	Not Active	Not Active	Not Active	–
